The text below walks through data of patent EP0320984A2, “1,4-Dihydropyridine derivatives” (FUJIREBIO INC., priority 1987, dated 1989).

The experiment has as its system Rabbit platelet rich plasma (PRP). Kind of experiment: Inhibitory activity on platelet aggregation in rabbit platelet rich plasma (light transmission). The format is cell-based. The conditions noted are these: added to PRP 30 minutes before agent; for Inhibitory activity on platelet aggregation, PAF: compound 3x10^-6 (unit not given), Platelet activating factor (PAF) 10 mg/ml; for Inhibitory activity on platelet aggregation, ADP / Inhibitory activity on platelet aggregation, AA / Inhibitory activity on platelet aggregation, Collagen: compound 10^-4 (unit not given); for Inhibitory activity on platelet aggregation, ADP: Adenosine diphosphate (ADP) 5 mM; for Inhibitory activity on platelet aggregation, AA: Arachidonic acid (AA) 1 mM; for Inhibitory activity on platelet aggregation, Collagen: aggregating agent collagen. As for the experimental part: 3. Experiment for inhibitory activity on platelet aggregation in rabbit:
Rabbit platelet rich plasma (PRP) was prepared by centrifugation of the citrated blood at 380 g for 10 minutes at 20°C. Test solution (10 µl) was added to PRP (200 µl) 30 minutes before treatment of aggregation agents (10 µl). The extent of aggregation was expressed with the maximum change in light transmission for PRP and platelet poor plasma was taken as a value of 100%

For `COC(=O)C1=C(C)NC(C)=C(C(=O)OC/C(C)=C/c2ccc(Cn3ccnc3)cc2)C1c1cccc([N+](=O)[O-])c1` (stereo not shown) [Example 8, (E)-3-{4-(1-imidazolylmethyl)phenyl}-2-methyl-2-propen-1-yl methyl 1,4-dihydro-2,6-dimethyl-4-(3-nitro-phenyl)pyridine-3,5-dicarboxylate], the “Inhibitory activity on platelet aggregation, PAF” value (shortened to “Inhibitory activity … PAF”) was 28.9%; the “Inhibitory activity on platelet aggregation, ADP” value (“Inhibitory activity … ADP” for short) came out at 10.8%; the “Inhibitory activity on platelet aggregation, AA” value (“Inhibitory activity … AA” below) is 18.8%; the “Inhibitory activity on platelet aggregation, Collagen” value (from here on “Inhibitory activity … Collagen”) came out at 18.9%.
For `COC(=O)C1=C(C)NC(C)=C(C(=O)OC/C=C/c2ccc(Cn3cnnc3)cc2)C1c1cccc([N+](=O)[O-])c1` (stereo not shown) [Example 9], in that order: 78.8%, 6.5%, 5.9% and 11.1%.
Consider `COC(=O)C1=C(C)NC(C)=C(C(=O)OC/C=C/c2ccc(Cn3cncn3)cc2)C1c1cccc([N+](=O)[O-])c1` (stereo not shown) [Example 10, Methyl (E)-3-{4-(1,2,4-triazol-1-ylmethyl)phenyl}-2propen-1-yl 1,4-dihydro-2,6-dimethyl-4-(3-nitrophenyl)pyridine-3,5-dicarboxylate], for which the “Inhibitory activity … PAF” value is 24.4%; the “Inhibitory activity … ADP” value is on record as 2.1%; the “Inhibitory activity … AA” value was 5.0%; the “Inhibitory activity … Collagen” value is listed as 5.5%.
For `COC(=O)C1=C(C)NC(C)=C(C(=O)OC/C=C/c2ccc(Cn3cnnn3)cc2)C1c1cccc([N+](=O)[O-])c1` (stereo not shown) [Example 11, Methyl (E)-3-{4-(1,2,3,4-tetrazol-1-ylmethyl)phenyl}-2-propen-1-yl 1,4-dihydro-2,6-dimethyl-4-(3-nitrophenyl)pyridine-3,5-dicarboxylate], in that order: 31.1%, 1.3%, 2.9% and 7.1%.
For `COC(=O)C1=C(C)NC(C)=C(C(=O)OC/C=C/c2ccc(Cn3ccnc3)cc2)C1c1cccc(Cl)c1Cl` (stereo not shown) [Example 12, (E)-3-{4-(1-imidazolylmethyl)phenyl}-2-propen-1-yl methyl 1,4-dihydro-2,6-dimethyl-4-(2,3-dichlorophenyl)pyridine-3,5-dicarboxylate], in that order: 51.8%, 7.3%, 11.4% and 10.3%.
For `COC(=O)C1=C(C)NC(C)=C(C(=O)OC/C(F)=C/c2ccc(Cn3ccnc3)cc2)C1c1cccc([N+](=O)[O-])c1` (stereo not shown) [Example 13, (Z)-3-{4-(1-imidazolylmethyl)phenyl}-2-fluoro-2-propen-1-yl methyl 1,4-dihydro-2,6-dimethyl-4-(3-nitrophenyl)pyridine-3,5-dicarboxylate], in that order: 49.6%, 10.9%, 17.4% and 6.3%.
For the molecule `CC1=C(C(=O)OC/C=C/c2ccccc2)C(c2cccc([N+](=O)[O-])c2)C(C(=O)OC/C=C/c2ccc(Cn3ccnc3)cc2)=C(C)N1` (stereo not shown) [Example 14, (E)-cinnamyl (E)-3-{4-(1-imidazolylmethyl)phenyl}-2-propen-1-yl 1,4-dihydro-2,6-dimethyl-4-(3-nitrophenyl)pyridine-3,5-dicarboxylate], the “Inhibitory activity … PAF” value was 44.7%; the “Inhibitory activity … ADP” value came to 4.3%; the “Inhibitory activity … AA” value is 42.0%; the “Inhibitory activity … Collagen” value worked out at 69.6%.
Turning to `COCCOC(=O)C1=C(C)NC(C)=C(C(=O)OC/C=C/c2ccc(Cn3ccnc3)cc2)C1c1cccc([N+](=O)[O-])c1` (stereo not shown) [Example 16, (E)-3-{4-(1-imidazolylmethyl)phenyl}-2-propen-1-yl 2-methoxyethyl 1,4-dihydro-2,6-dimethyl-4-(3-nitrophenyl)pyridine-3,5-dicarboxylate], the “Inhibitory activity … PAF” value is reported as 42.4%; the “Inhibitory activity … ADP” value is recorded as 7.1%; the “Inhibitory activity … AA” value is on record as 33.7%; the “Inhibitory activity … Collagen” value turned out to be 24.7%.
Turning to `COC(=O)C1=C(C)NC(C)=C(C(=O)OC/C=C/c2ccc(Cn3ccnc3)cc2)C1c1cccc(C(F)(F)F)c1` (stereo not shown) [Example 17, (E)-3-{4-(1-imidazolylmethyl)phenyl}-2-propen-1-yl methyl 1,4-dihydro-2,6-dimethyl-4-(3-trifluoromethylphenyl)pyridine-3,5-dicarboxylate], the “Inhibitory activity … PAF” value stood at 39.7%; the “Inhibitory activity … ADP” value is on record as 10.5%; the “Inhibitory activity … AA” value was determined as 37.8%; the “Inhibitory activity … Collagen” value is 55.0%.
Consider `COC(=O)C1=C(C)NC(C)=C(C(=O)OC/C=C/c2ccc(Cn3ccnc3)cc2)C1c1ccccc1C#N` (stereo not shown) [Example 18, (E)-3-{4-(1-imidazolylmethyl)phenyl}-2-propen-1-yl methyl 1,4-dihydro-2,6-dimethyl-4-(2-cyanophenyl)pyridine-3,5-dicarboxylate], for which the “Inhibitory activity … PAF” value was 48.6%; the “Inhibitory activity … ADP” value was determined as 8.8%; the “Inhibitory activity … AA” value is on record as 30.4%; the “Inhibitory activity … Collagen” value was determined as 61.8%.
For `COC(=O)C1=C(C)NC(C)=C(C(=O)OC/C=C/c2ccccc2Cn2ccnc2)C1c1cccc([N+](=O)[O-])c1` (stereo not shown) [Example 20, (E)-3-{2-(1-imidazolylmethyl)phenyl}-2-propen-1-yl methyl 1,4-dihydro-2,6-dimethyl-4-(3-nitrophenyl)pyridine-3,5-dicarboxylate], in that order: 0%, 9.5%, 30.4% and 32.3%.
Regarding `COC(=O)C1=C(C)NC(C)=C(C(=O)OC/C=C/c2cccc(Cn3ccnc3)c2)C1c1cccc([N+](=O)[O-])c1` (stereo not shown) [Example 21, (E)-3-{3-(1-imidazolylmethyl)phenyl}-2-propen-1-yl methyl 1,4-dihydro-2,6-dimethyl-4-(3-nitrophenyl)pyridine-3,5-dicarboxylate], the “Inhibitory activity … PAF” value amounted to 25.4%; the “Inhibitory activity … ADP” value is listed as 17.3%; the “Inhibitory activity … AA” value came out at 37.6%; the “Inhibitory activity … Collagen” value was found to be 29.5%.
In the case of `COC(=O)C1=C(C)NC(C)=C(C(=O)OC/C=C/c2ccc(Cn3ccnc3)cc2)C1c1cccnc1` (stereo not shown) [Example 22, (E)-3-{4-(1-imidazolylmethyl)phenyl}-2-propen-1-yl methyl 1,4-dihydro-2,6-dimethyl-4-(3-pyridyl)pyridine-3,5-dicarboxylate], the “Inhibitory activity … PAF” value came to 0%; the “Inhibitory activity … ADP” value is 14.7%; the “Inhibitory activity … AA” value turned out to be 23.2%; the “Inhibitory activity … Collagen” value worked out at 24.7%.
For `COC(=O)C1=C(C)NC(C)=C(C(=O)OC/C=C/c2ccc(Cn3ccnc3)cc2)C1c1ccnc2ccccc12` (stereo not shown) [Example 23, (E)-3-{4-(1-imidazolylmethyl)phenyl}-2-propen-1-yl methyl 1,4-dihydro-2,6-dimethyl-4-(4-quinolyl)pyridine-3,5-dicarboxylate], in that order: 0%, 2.6%, 25.7% and 29.5%.
Consider `COC(=O)C1=C(C)NC(C)=C(C(=O)OC/C=C/c2cccc(Cn3ccnc3)n2)C1c1cccc([N+](=O)[O-])c1` (stereo not shown) [Example 25, (E)-3-{6-(1-imidazolylmethyl)pyridine-2-yl}-2-propen-1-yl methyl 1,4-dihydro-2,6-dimethyl-4-(3-nitrophenyl)pyridine-3,5-dicarboxylate], for which the “Inhibitory activity … PAF” value turned out to be 28.5%; the “Inhibitory activity … ADP” value was 0%; the “Inhibitory activity … AA” value was determined as 27.8%; the “Inhibitory activity … Collagen” value was 22.5%.
With `COC(=O)C1=C(C)NC(C)=C(C(=O)OCCON=Cc2ccc(Cn3ccnc3)cc2)C1c1cccc([N+](=O)[O-])c1` (stereo not shown) [Example 26, 2-[{4-(1-imidazolylmethyl)benzylideneamino}oxy]ethyl methyl 1,4-dihydro-2,6-dimethyl-4-(3-nitrophenyl)pyridine3,5-dicarboxylate], the “Inhibitory activity … PAF” value is recorded as 30.0%; the “Inhibitory activity … ADP” value was found to be 6.0%; the “Inhibitory activity … AA” value is recorded as 27.6%; the “Inhibitory activity … Collagen” value worked out at 13.5%.
